Measured values taken from patent EP0670721B1, “DRUG FOR TREATMENT AND PROPHYLAXIS OF BONE AND JOINT DISEASES” (Fricker, Christian, priority 1993, dated 1995).

Test: Oral treatment of bone and joint diseases with raised internal pressure (own controlled trials)
Type: in vivo, Menschen, Hund, Pferd
Details: osteoarthrosis (human and veterinary), podotrochlosis of the horse
Excerpt: Erfindungsgemäß konnte festgestellt werden, daß bei degenerativen Gelenkserkrankungen in den Epiphysen bei am Gelenk beteiligten Knochen ein pathologisch erhöhter Innendruck vorliegt. Analog zur Pathophysiologie des Kompartmentsyndroms wird der intraossäre Druckanstieg durch eine Anreicherung von osmotisch aktiven Substanzen in Intestitium verursacht. In Anlehnung an die vorgestellte Pathophysiologie kann somit erstmals eine kausale Therapie für degenerative Gelenkserkrankungen bereitgestellt werden. Benzopyrone und Dobesilat-calcium vermögen durch Stabilisierung der Kapillarwände einerseits und durch Proteinresorption andererseits den Druck im erkrankten Kompartment abzubauen. Der Druckabbau ermöglicht in der Folge eine Normalisierung der Mikrozirkulation und somit eine Gesundung der betroffenen Gewebe. Wie eigene, kontrollierte Versuche zeigen, eignen sich Benzopyrone wie auch Dobesilat-Calcium zur kausalen Therapie dieser auf innerem Überdruck in Knochen und Gelenken beruhenden Erkrankungen. Dies trifft insbesondere in der Human- und Veterinärmedizin für den Problemkreis der Osteoarthrose und in der Veterinärmedizin für die Podotrochlose des Pferdes zu.
Das 5,6-α-Benzopyron wurde in der Tagesdosis von: • 1 - 4 mg/kg KGW beim Menschen, • 2 - 4 mg/kg KGW beim Hund und • 0,5 - 1 mg/kg KGW beim Pferd peroral verabreicht. […]

O=S(=O)(O)c1cc(O)ccc1O [Dobesilat-Calcium]
Eignung zur kausalen Therapie der auf innerem Überdruck in Knochen und Gelenken beruhenden Erkrankungen: eignen sich
